“Also recorded” adds a separate entry of the source. Read-outs that look alike come from different tables or passages of the source.
Assays:
[1] = test system: influenza A/PR/8/34 (H1N1) followed by S. pneumoniae D39; experiment: Chemoprophylaxis study: mice infected with influenza virus on day 0, oseltamivir begun 4 hours before infection, pneumococcal challenge on day 7; assay type: in vivo, Balb/cByJ mice; conditions: for Weight Loss (% of Baseline) / Mean viral lung titer: prophylaxis study
[2] = test system: influenza A/PR/8/34 (H1N1) followed by S. pneumoniae D39; experiment: Treatment study: sequential dual infection, oseltamivir begun 48 hours after influenza infection, pneumococcal challenge on day 7; assay type: in vivo, Balb/cByJ mice; conditions: for Survival (Mantel-Cox Chi-Squared test on Kaplan-Meier survival data): oseltamivir 10 mg/kg/day BID begun 48 h after influenza, until D39 challenge on day 7, p<0.01 vs water control; for Mean viral lung titer / Weight Loss (% of Baseline) / Mean bacterial lung titer: treatment study; for Mean bacterial lung titer: day 8, 24 hours after pneumococcal challenge
[3] = cited from earlier work

CCOC(=O)C1=C[C@@H](OC(CC)CC)[C@H](NC(C)=O)[C@@H](N)C1 [oseltamivir, oseltamivir phosphate]
Survival (Mantel-Cox Chi-Squared test on Kaplan-Meier survival data) ([1]; oseltamivir 10 mg/kg/day BID for 5 days from 4 h before influenza, 100 TCID50 PR8 day 0, 100 CFU D39 day 7, p<0.005 vs water control): significantly prolonged; also recorded: prolongs survival
Median survival ([1]; prophylaxis group, after pneumococcal challenge, control <1 day): 7 days
Survival (number survived/total) ([1]; prophylaxis group, followed 21 days, control 0/10): 5/10
Weight lost by surviving mice, % of their day 7 weight ([1]; prophylaxis group, in 48 hours after pneumococcal challenge, control 9.5%): 7.5%
Weight Loss (% of Baseline) ([1]; day 3): 4.0 % of Baseline
Mean viral lung titer ([1]; day 3, log10/ml TCID50 in MDCK cells): 4.3 log10
Mean viral lung titer ([1]; day 3, log10/ml TCID50 in MDCK cells, listed as Oseltamivir): 4.32 log10
Weight Loss (% of Baseline) ([1]; day 7): 9 % of Baseline
Mean viral lung titer ([1]; day 7, before pneumococcal challenge, log10/ml TCID50): 3.84 log10
Weight Loss (% of Baseline) ([1]; day 7, listed as Oseltamivir): 8.7 % of Baseline
Lung histopathology ([2]; lung tissue on day 8, untreated controls: diffuse, severe infection disseminated throughout both lungs): lobar bronchopneumonia infection that is confined to defined regions of the lungs
Survival (Mantel-Cox Chi-Squared test on Kaplan-Meier survival data) [2]: significantly prolonged
Survival (Mantel-Cox Chi-Squared test on Kaplan-Meier survival data) ([2]; listed as Oseltamivir): prolongs survival
Median survival ([2]; oseltamivir group of the treatment study, control 1 day): 5 days
Weight lost by surviving mice, % of their day 7 weight ([2]; treatment group, in 48 hours after pneumococcal challenge, control 5%): 4%
Survival (number survived/total) ([2]; treatment group, control 0/9): 3/10
Mean viral lung titer ([2]; day 3): 6.8 log10
Weight Loss (% of Baseline) ([2]; day 3): 7.6 % of Baseline
Mean viral lung titer ([2]; day 3, listed as Oseltamivir): 6.84 log10
Mean viral lung titer ([2]; day 7): 5.4 log10
Weight Loss (% of Baseline) ([2]; day 7): 23 % of Baseline
Mean viral lung titer ([2]; day 7, listed as Oseltamivir): 5.42 log10
Mean bacterial lung titer [2]: 7.1 log10 CFU/ml
Mean bacterial lung titer ([2]; listed as Oseltamivir): 7.08 log10 CFU/ml
Half-life ([3]; oral): 6 to 10 h
Systemic bioavailability ([3]; oral): 80%

CC(=O)N[C@H]1[C@H]([C@H](O)[C@H](O)CO)OC(C(=O)O)=C[C@@H]1N=C(N)N [Zanamivir, zanamivir]
Fraction of inhaled drug that reaches the lungs ([3]; dry powder for inhalation): approx. 20%
Gastrointestinal absorption ([3]; in vivo): poorly absorbed
Half-life ([3]; in vivo): 2.5 to 5 h

Source: patent US20040248825A1, “Use of neuraminidase inhibitors to prevent flu associated bacterial infections” (St. Jude Children's Research Hospital, priority 2001, published 2004)
